Assay results taken from patent US20130157953A1, “TREATMENT OF CARDIAC CONDITIONS” (Zealand Pharma A/S, priority 2010, published 2013).
Numbered stars: 1 amine (or outer) side, 2 acyl side, 3 side chain; on linkers, the order of the positions; unused ones are H or OH. Bridge positions count the residues as written; N and C are the ends. Square brackets hold non-standard residues; d marks the D form. Side chains are listed from the residue outwards. Ends that are not written are not given here. Peptide text beside a SMILES is read from it. * marks the point of attachment. γGlu = O=C(O)[C@H](CCC(=O)[*:2])N[*:1]; Palmitoyl = CCCCCCCCCCCCCCCC(=O)*; Aib = CC(C)(N)C(=O)O

What was measured:
[1] = system: anesthetized male Sprague-Dawley rats; assay: Inotropic effect in vivo in anaesthetized rats (stroke work, heart rate); details: for heart rate / increase in strokework: i.v. infusion; for heart rate: 0.2 and 0.5 nmol/kg/min; for increase in strokework: at a given infusion rate (up to 2.5 nmol/kg/min), 40% set as end point
Description: The rats were exposed to 5% isoflurane in 1:2 N2O:O2 until anesthesia were established.
A catheter was inserted into the left femoral vein for drug administration and a pressure-volume catheter was inserted into the left ventricle via the right carotid artery. After instrumentation, isoflurane was delivered in pure O2 during the experiment.
The horizontal line marks 40% increase in stroke work, which was defined as the maximal increase that should be obtained during the experiment.

[2] = target: T1, human GLP-1R (Homo sapiens, UniProt P43220); assay: cAMP formation in HEK293 cells expressing human GLP-1R; format: cell-based; details: 15 min at 37° C.
T1 construct: expressed in transfected cells; host or cells: HEK293
T1 sequence (P43220 24-463): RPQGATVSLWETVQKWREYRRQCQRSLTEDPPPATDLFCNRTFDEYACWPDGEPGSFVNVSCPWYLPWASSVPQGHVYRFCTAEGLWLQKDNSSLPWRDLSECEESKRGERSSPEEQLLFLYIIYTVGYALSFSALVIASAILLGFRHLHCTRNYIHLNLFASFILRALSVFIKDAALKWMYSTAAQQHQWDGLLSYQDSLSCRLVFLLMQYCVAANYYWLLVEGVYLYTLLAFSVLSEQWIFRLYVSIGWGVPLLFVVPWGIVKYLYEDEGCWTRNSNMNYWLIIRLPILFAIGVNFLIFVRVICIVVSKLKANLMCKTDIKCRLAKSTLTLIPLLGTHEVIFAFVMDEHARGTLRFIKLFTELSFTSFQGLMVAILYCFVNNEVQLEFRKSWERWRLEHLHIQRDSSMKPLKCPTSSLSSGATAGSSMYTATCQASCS
Description: (§1) Similarly, activation of the GLP-1 receptor by a GLP-1 agonist will stimulate cellular cAMP formation. Thus, production of cAMP in suitable cells expressing one of these two receptors can be used to monitor the relevant receptor activity.
(§2) The skilled person will be aware of suitable assay formats, and examples are provided below. […] (Where sequences of precursor proteins are referred to, it should of course be understood that assays may make use of the mature protein, lacking the signal sequence).
(§3) On the day of analysis, growth medium was removed and the cells washed once with 200 μl Tyrode buffer. Cells were incubated in […] containing increasing concentrations of test peptides, 100 μM IBMX, and 6 mM glucose for 15 min at 37° C. The reaction was stopped by addition of 25 μl 0.5 M HCl and incubated on ice for 60 min. The cAMP content was estimated using the FlashPlate® cAMP kit from Perkin-Elmer. EC50 values were estimated by computer aided curve fitting.

[3] = target: T2, human glucagon receptor (Homo sapiens, UniProt P47871); assay: cAMP formation in HEK293 cells expressing the human glucagon receptor; format: cell-based; details: 15 min at 37° C., read-out: EC50 (nM) GuR
T2 construct: expressed in transfected cells; host or cells: HEK293
T2 sequence (P47871 26-477): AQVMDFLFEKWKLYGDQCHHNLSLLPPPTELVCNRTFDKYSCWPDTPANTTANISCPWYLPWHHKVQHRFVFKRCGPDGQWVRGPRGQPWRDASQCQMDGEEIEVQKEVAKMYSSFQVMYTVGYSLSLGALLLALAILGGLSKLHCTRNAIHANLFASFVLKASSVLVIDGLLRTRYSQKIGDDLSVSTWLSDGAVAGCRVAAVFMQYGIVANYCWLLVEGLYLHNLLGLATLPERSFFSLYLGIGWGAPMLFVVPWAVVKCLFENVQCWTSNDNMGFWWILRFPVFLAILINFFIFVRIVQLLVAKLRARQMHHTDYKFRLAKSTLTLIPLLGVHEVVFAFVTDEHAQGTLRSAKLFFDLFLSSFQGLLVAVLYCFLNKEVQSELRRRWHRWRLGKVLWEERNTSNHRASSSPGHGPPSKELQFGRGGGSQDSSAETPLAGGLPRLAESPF
Description: as §1, §2, §3

`CC[C@H](C)[C@H](NC(=O)[C@H](Cc1ccccc1)NC(=O)[C@H](CC(=O)O)NC(=O)[C@H](CCCCN)NC(=O)[C@H](C)NC(=O)[C@H](CCCNC(=N)N)NC(=O)[C@H](CCCNC(=N)N)NC(=O)[C@H](CCC(=O)O)NC(=O)[C@H](CC(=O)O)NC(=O)[C@H](CC(C)C)NC(=O)[C@H](Cc1ccc(O)cc1)NC(=O)[C@H](CCCCN)NC(=O)[C@H](CO)NC(=O)[C@H](Cc1ccc(O)cc1)NC(=O)[C@H](CC(=O)O)NC(=O)[C@H](CO)NC(=O)[C@@H](NC(=O)[C@H](Cc1ccccc1)NC(=O)[C@@H](NC(=O)CNC(=O)[C@H](CCC(N)=O)NC(=O)[C@H](CO)NC(=O)[C@@H](N)Cc1c[nH]cn1)[C@@H](C)O)[C@@H](C)O)C(=O)N[C@@H](CCC(=O)O)C(=O)N[C@@H](Cc1c[nH]c2ccccc12)C(=O)N[C@@H](CC(C)C)C(=O)N[C@@H](CC(C)C)C(=O)N[C@@H](CO)C(=O)N[C@@H](C)C(N)=O` [Compound 35] was tested, and the heart rate [1] was “tendency”.
In the case of `CCCCCCCCCCCCCCCC(=O)N[C@@H](CCC(=O)NCCCC[C@H](NC(=O)[C@H](CO)NC(=O)[C@H](CC(=O)O)NC(=O)[C@H](CC(C)C)NC(=O)[C@H](Cc1ccc(O)cc1)NC(=O)[C@H](CCCCN)NC(=O)[C@H](CO)NC(=O)[C@H](Cc1ccc(O)cc1)NC(=O)[C@H](CC(=O)O)NC(=O)[C@H](CO)NC(=O)[C@@H](NC(=O)[C@H](Cc1ccccc1)NC(=O)[C@@H](NC(=O)CNC(=O)[C@H](CCC(N)=O)NC(=O)C(C)(C)NC(=O)[C@@H](N)Cc1c[nH]cn1)[C@@H](C)O)[C@@H](C)O)C(=O)N[C@@H](C)C(=O)N[C@@H](C)C(=O)N[C@@H](Cc1c[nH]cn1)C(=O)N[C@@H](CC(=O)O)C(=O)N[C@@H](Cc1ccccc1)C(=O)N[C@H](C(=O)N[C@@H](CCC(=O)O)C(=O)N[C@@H](Cc1c[nH]c2ccccc12)C(=O)N[C@@H](CC(C)C)C(=O)N[C@@H](CC(C)C)C(=O)N[C@@H](CCCNC(=N)N)C(=O)N[C@@H](C)C(N)=O)C(C)C)C(=O)O` [Compound 206] (H-H[Aib]QGTFTSDYSKYLDSK([γGlu-Palmitoyl])AAHDFVEWLLRA-NH2), the EC50 [2] is reported as 0.09 nM, the “duration of strokework increase” value ([1]; after end of compound infusion, during final vehicle infusion) is reported as “prolonged increase in strokework that outlasted the compound infusion” and the increase in strokework [1] is reported as 40%. The EC50 [3] was 0.16 nM.
In the case of `CC(C)C[C@H](NC(=O)[C@H](Cc1ccc(O)cc1)NC(=O)[C@H](CCCCN)NC(=O)[C@H](CO)NC(=O)[C@H](Cc1ccc(O)cc1)NC(=O)[C@H](CC(=O)O)NC(=O)[C@H](CO)NC(=O)[C@@H](NC(=O)[C@H](Cc1ccccc1)NC(=O)[C@@H](NC(=O)CNC(=O)[C@H](CCC(N)=O)NC(=O)[C@H](CO)NC(=O)[C@@H](N)Cc1c[nH]cn1)[C@@H](C)O)[C@@H](C)O)C(=O)N[C@@H](CC(=O)O)C(=O)N[C@@H](CO)C(=O)N[C@@H](CCCNC(=N)N)C(=O)N[C@@H](CCCNC(=N)N)C(=O)N[C@@H](C)C(=O)N[C@@H](CCC(N)=O)C(=O)N[C@@H](CC(=O)O)C(=O)N[C@@H](Cc1ccccc1)C(=O)N[C@H](C(=O)N[C@@H](Cc1c[nH]c2ccccc12)C(=O)N[C@@H](CC(C)C)C(=O)N[C@@H](CCC(=O)O)C(=O)N[C@@H](CO)C(=O)N[C@@H](C)C(N)=O)C(C)C` [Compound 248], the EC50 [2] is reported as 0.5 nM and the EC50 [3] is reported as 0.1 nM.
`CC(C)C[C@H](NC(=O)[C@H](Cc1ccc(O)cc1)NC(=O)[C@H](CCCCN)NC(=O)[C@H](CO)NC(=O)[C@H](Cc1ccc(O)cc1)NC(=O)[C@H](CC(=O)O)NC(=O)[C@H](CO)NC(=O)[C@@H](NC(=O)[C@H](Cc1ccccc1)NC(=O)[C@@H](NC(=O)CNC(=O)[C@H](CCC(N)=O)NC(=O)[C@H](CO)NC(=O)[C@@H](N)Cc1c[nH]cn1)[C@@H](C)O)[C@@H](C)O)C(=O)N[C@@H](CC(=O)O)C(=O)N[C@@H](CO)C(=O)N[C@@H](CCCNC(=N)N)C(=O)N[C@@H](CCCNC(=N)N)C(=O)N[C@@H](C)C(=O)N[C@@H](CCC(N)=O)C(=O)N[C@@H](CC(=O)O)C(=O)N[C@@H](Cc1ccccc1)C(=O)N[C@H](C(=O)N[C@@H](Cc1c[nH]c2ccccc12)C(=O)N[C@@H](CC(C)C)C(=O)N[C@@H](CCCCN)C(=O)N[C@@H](CO)C(=O)N[C@@H](C)C(N)=O)C(C)C` [Compound 249] gave an EC50 [2] of 0.1 nM and an EC50 [3] of 0.1 nM.
`CC(C)C[C@H](NC(=O)[C@H](Cc1ccc(O)cc1)NC(=O)[C@H](CCCCN)NC(=O)[C@H](CO)NC(=O)[C@H](Cc1ccc(O)cc1)NC(=O)[C@H](CC(=O)O)NC(=O)[C@H](CO)NC(=O)[C@@H](NC(=O)[C@H](Cc1ccccc1)NC(=O)[C@@H](NC(=O)CNC(=O)[C@H](CCC(N)=O)NC(=O)[C@H](CO)NC(=O)[C@@H](N)Cc1c[nH]cn1)[C@@H](C)O)[C@@H](C)O)C(=O)N[C@@H](CC(=O)O)C(=O)N[C@@H](CO)C(=O)N[C@@H](CCCNC(=N)N)C(=O)N[C@@H](CCCNC(=N)N)C(=O)N[C@@H](C)C(=O)N[C@@H](CCC(N)=O)C(=O)N[C@@H](CC(=O)O)C(=O)N[C@@H](Cc1ccccc1)C(=O)N[C@H](C(=O)N[C@@H](Cc1c[nH]c2ccccc12)C(=O)N[C@@H](CC(C)C)C(=O)N[C@@H](CCCCN)C(=O)N[C@@H](CCCNC(=N)N)C(=O)N[C@@H](C)C(N)=O)C(C)C` [Compound 250] was tested, and the EC50 [2] was 0.3 nM and the EC50 [3] was 0.1 nM.
`CC(C)C[C@H](NC(=O)[C@H](Cc1ccc(O)cc1)NC(=O)[C@H](CCCCN)NC(=O)[C@H](CO)NC(=O)[C@H](Cc1ccc(O)cc1)NC(=O)[C@H](CC(=O)O)NC(=O)[C@H](CO)NC(=O)[C@@H](NC(=O)[C@H](Cc1ccccc1)NC(=O)[C@@H](NC(=O)CNC(=O)[C@H](CCC(N)=O)NC(=O)[C@H](CO)NC(=O)[C@@H](N)Cc1c[nH]cn1)[C@@H](C)O)[C@@H](C)O)C(=O)N[C@@H](CC(=O)O)C(=O)N[C@@H](CO)C(=O)N[C@@H](CCCNC(=N)N)C(=O)N[C@@H](CCCNC(=N)N)C(=O)N[C@@H](C)C(=O)N[C@@H](CCC(N)=O)C(=O)N[C@@H](CC(=O)O)C(=O)N[C@@H](Cc1ccccc1)C(=O)N[C@H](C(=O)N[C@@H](Cc1c[nH]c2ccccc12)C(=O)N[C@@H](CC(C)C)C(=O)N[C@@H](CCC(=O)O)C(=O)N[C@@H](CCCNC(=N)N)C(=O)N[C@@H](C)C(N)=O)C(C)C` [Compound 251] gave an EC50 [2] of 0.2 nM and an EC50 [3] of 0.1 nM.
Work on `CC(C)C[C@@H]1NC(=O)[C@H](CC(C)C)NC(=O)[C@H](Cc2c[nH]c3ccccc23)NC(=O)[C@@H](NC(=O)[C@@H](NC(=O)[C@H](Cc2ccccc2)NC(=O)[C@H](CC(=O)O)NC(=O)[C@H](Cc2c[nH]cn2)NC(=O)[C@H](C)NC(=O)[C@H](C)NC(=O)[C@H](CCCCN)NC(=O)[C@H](CO)NC(=O)[C@H](CC(=O)O)NC(=O)[C@H](CC(C)C)NC(=O)[C@H](Cc2ccc(O)cc2)NC(=O)[C@H](CCCCN)NC(=O)[C@H](CO)NC(=O)[C@H](Cc2ccc(O)cc2)NC(=O)[C@H](CC(=O)O)NC(=O)[C@H](CO)NC(=O)[C@@H](NC(=O)[C@H](Cc2ccccc2)NC(=O)[C@@H](NC(=O)CNC(=O)[C@H](CCC(N)=O)NC(=O)[C@H](CO)NC(=O)[C@@H](N)Cc2c[nH]cn2)[C@@H](C)O)[C@@H](C)O)C(C)C)CCC(=O)NCCCC[C@@H](C(=O)N[C@@H](C)C(N)=O)NC1=O` [Compound 261] (H-HSQGTFTSDYSKYLDSKAAHDFVEWLLKA-NH2; lactam 24-28) yielded an EC50 [2] of 0.03 nM and an EC50 [3] of 0.07 nM.
With `CCCCCCCCCCCCCCCC(=O)N[C@@H](CCC(=O)NCCCC[C@H](NC(=O)[C@H](CCC(=O)O)NC(=O)[C@H](CC(=O)O)NC(=O)[C@H](CC(C)C)NC(=O)[C@H](Cc1ccc(O)cc1)NC(=O)[C@H](CCCCN)NC(=O)[C@H](CO)NC(=O)[C@H](Cc1ccc(O)cc1)NC(=O)[C@H](CC(=O)O)NC(=O)[C@H](CO)NC(=O)[C@@H](NC(=O)[C@H](Cc1ccccc1)NC(=O)[C@@H](NC(=O)CNC(=O)[C@H](CCC(N)=O)NC(=O)C(C)(C)NC(=O)[C@@H](N)Cc1c[nH]cn1)[C@@H](C)O)[C@@H](C)O)C(=O)N[C@@H](CCCNC(=N)N)C(=O)N[C@@H](C)C(=O)N[C@@H](CCCCN)C(=O)N[C@@H](CC(=O)O)C(=O)N[C@@H](Cc1ccccc1)C(=O)N[C@H](C(=O)N[C@@H](CCC(=O)O)C(=O)N[C@@H](Cc1c[nH]c2ccccc12)C(=O)N[C@@H](CC(C)C)C(=O)N[C@@H](CC(C)C)C(=O)N[C@@H](CO)C(=O)N[C@@H](C)C(N)=O)[C@@H](C)CC)C(=O)O` [Compound 263] (H-H[Aib]QGTFTSDYSKYLDEK([γGlu-Palmitoyl])RAKDFIEWLLSA-NH2) the EC50 [2] was 0.1 nM and the EC50 [3] was 0.16 nM.
“H-HSQGTFTSDYSKYLDKRRAEDFVWLMNT-NH2 [Compound 256]” gave an EC50 [2] of 0.2 nM and an EC50 [3] of 0.07 nM.
“H-HSQGTFTSDYSKYLDSALAQDFVWLLNT-NH2 [Compound 255]” gave an EC50 [2] of 0.24 nM and an EC50 [3] of 0.1 nM.
In the case of “H-HSQGTFTSDYSKYLDSRAAQDFVWLMNT-NH2 [Compound 246]”, the EC50 [2] is reported as 0.3 nM and the EC50 [3] is reported as 0.05 nM.
Work on “H-HSQGTFTSDYSKYLDSRHAQDFVWLMNT-NH2 [Compound 244]” yielded an EC50 [2] of 0.5 nM and an EC50 [3] of 0.05 nM.
For “H-HSQGTFTSDYSKYLDSRSAQDFVWLMNT-NH2 [Compound 245]”, the EC50 [2] was 0.1 nM and the EC50 [3] was 0.05 nM.
Compound “H-HSQGTFTSDYSKYLDSRYAQDFVWLMNT-NH2 [Compound 247]” has an EC50 [2] of 0.3 nM and an EC50 [3] of 0.1 nM.
With “H-HSQGTFTSDYSRYLDSRRAQDFVWLLNK-NH2 [Compound 254]” the EC50 [2] was 0.2 nM and the EC50 [3] was 0.2 nM.
“H-HSQGTFTSDYSRYLDSRRAQDFVWLLNT-NH2 [Compound 253]” gave an EC50 [2] of 0.2 nM and an EC50 [3] of 0.1 nM.
“HSQGTFTSDYSKYLDRARADDFVAWLERA [Compound 9]” showed an increase in strokework [1] of 40%.
For “HSQGTFTSDYSKYLDSKAARDFVRWLKLA-NH2 [Compound 37]”, the heart rate [1] was “tendency”.
